According to publication PMC12040169 (PLOS Biology, 2025):

assay: in vitro; conditions: human, hela cells, % viability

Row | Structure (SMILES) | viability at 28.5 h, 10 µM [%]
1 | O=C(Nc1ccc(F)cc1)N1C2CCC1CC(O)(c1cccnc1)C2 (stereo not shown) [CBK281946] | 89.9
2 | CCOc1ccc(NC(=O)N(C)Cc2noc(CC(C)C)n2)cc1C#N [CBK307089] | 85.2
3 | O=c1n(Cc2ccccn2)c2cccnc2n1Cc1cccs1 [CBK283867] | 90.2
4 | O=C(CN(c1cccc(Cl)c1)S(=O)(=O)c1ccc(Cl)cc1)NCc1ccco1 [CBK265356] | 106
5 | CC(C)CCNC(=O)c1ccc(N2CCN(C(=O)c3ccccc3C(F)(F)F)CC2)nn1 [CBK153222] | 114
6 | CCc1nnc(NS(=O)(=O)c2cc(C(=O)O)c(Cl)cc2F)s1 [CBK062195] | 90.9
7 | Cc1cccc(NC(=O)NCCCn2c(-c3ccncc3)nc3cccnc32)c1 [CBK288580] | 97.5
8 | O=C(OCC#CCSc1nnc(-c2ccccc2)o1)c1ccc([N+](=O)[O-])cc1 [CBK265588] | 107
9 | O=C(NCCSCc1c(F)cccc1Cl)Nc1cccc(Cl)c1 [CBK268574] | 98.6
10 | O=C(Cc1ccsc1)N1CCN(c2ncccn2)CC1 [CBK144525] | 105
11 | CS(=O)(=O)Nc1nn(-c2ccc(NC(=O)c3ccno3)cc2)c2ccccc12 [CBK048591] | 99.5
12 | O=C(O)c1cccc(Nc2nc(Nc3ccccc3)nc(N3CCCC3)n2)c1 [CBK286863] | 89.8
13 | CCCC/C=C/c1cncc(N2CCN(c3ccccn3)CC2)n1 [CBK037276] | 117
14 | Cc1ccc(/C=N\NC(=O)c2cccc(Cl)c2)s1 [CBK016469] | 90.8
15 | O=C(Cc1nn[nH]n1)Nc1ccc(F)c(Cl)c1 [CBK006384] | 95.4
16 | CN1CCCN(c2ccc(NS(=O)(=O)c3ccc(F)cc3F)c3ccccc23)CC1 [CBK001499C] | 64.8
17 | Cn1nccc1C(=O)NC1CCN(CC2(c3ccccc3)CC2)CC1 [CBK285373] | 106
18 | Cc1ccc(N(C(C)C(=O)Nc2ccccc2-c2ccccc2)S(C)(=O)=O)cc1 (stereo not shown) [CBK267889] | 105
19 | Cc1ccc(-c2csc3ncnc(SCc4csc(C)n4)c23)cc1 [CBK267244] | 91.7
20 | CN1CCN(C(=O)c2cccc(-c3ncc(OCC(F)(F)F)nc3N)c2)CC1 [CBK145196] | 91.3
21 | COc1ccc(C(=O)N2CCC3(CCCN(C(=O)c4ccc5occc5c4)C3)C2)cc1OC (stereo not shown) [CBK131665] | 97.6
22 | CCS(=O)(=O)N1CCN(S(=O)(=O)c2ccccc2[N+](=O)[O-])CC1 [CBK264289] | 99

Row | Structure (SMILES) | viability at 28.5 h, 10 µM [%]
23 | Cc1cc(-c2nnc3n2N=C(c2ccccc2)CS3)n[nH]1 [CBK287944] | 98.3
24 | CN(C)CC(=O)N1c2ccccc2CCc2ccc(NC(=O)c3ccc([N+](=O)[O-])cc3)cc21 [CBK278207C] | 87.4
25 | CC(CN1CCCCC1)OC(=O)COc1ccc(Br)cc1 (stereo not shown) [CBK265326C] | 96.9
26 | O=C1CCN(Cc2nc(-c3cccc(C(F)(F)F)c3)no2)CCN1 [CBK306368] | 109
27 | NCC1CCN(c2cc(C(F)(F)F)c3scc(C(=O)NCc4cccc(F)c4F)c3n2)CC1 [CBK036391T] | 71.6
28 | C=CCn1c(Cc2csc(NC(=O)c3ccc(OC)c(OC)c3)n2)n[nH]c1=S [CBK295324] | 102
29 | O=C(O)c1cccc(NS(=O)(=O)c2ccc(Br)cc2C(F)(F)F)c1 [CBK155724] | 90.9
30 | O=C(CN1CCC(NC(=O)c2cccs2)CC1)NCc1ccccc1F [CBK304901] | 97.2
31 | COc1cc(C)nc(NC(=O)COc2ccc(Cl)cc2C)n1 [CBK266681] | 106
32 | Cc1ncsc1CCN(C)C(=O)Cn1nc(C)c2ccccc2c1=O [CBK306893] | 86.3
33 | C=CCNc1nccnc1-c1cccc(O)c1 [CBK088505] | 88.2
34 | Cc1ccc(S(=O)(=O)Nc2ccc(Nc3nc(-c4ccccc4)cn4ccnc34)cc2)cc1 [CBK037303] | 104
35 | Cc1ccc(OCc2nnc(SCc3cccc(C#N)c3)n2Cc2ccccc2)cc1C [CBK266065] | 90.5
36 | CCNC(=O)N1CCC(NS(=O)(=O)c2cnc3ccccc3c2)C1 (stereo not shown) [CBK304419] | 85.3
37 | COC(=O)c1c(C)oc2cc(Br)c(OCC(=O)c3ccc(Cl)cc3)cc12 [CBK264946] | 83.5
38 | CCOc1ccc2cc(C3CC(c4ccc(C)cc4)=NN3C(=O)CCC(=O)O)c(Cl)nc2c1 (stereo not shown) [CBK297508] | 87.2
39 | CN(C)S(=O)(=O)c1cccc(C(=O)N(Cc2ccc(F)cc2)Cc2ccco2)c1 [CBK267579] | 88.8
40 | COc1ccc(CN2C(=O)CO[C@H]3CN(C(=O)COc4ccccc4)C[C@H]32)cc1 [CBK289262] | 108
41 | Cc1nccn1C(C(=O)NCC1(C)COC1)c1ccccc1 (stereo not shown) [CBK281743] | 97.9
42 | O=C(Cn1nnc(-c2ccc(CN3CCOCC3)cc2)n1)Nc1ccc(Br)cc1 [CBK127364] | 94.1
43 | CCOC(=O)c1c(NC(=O)C2C3CCC(C3=C(C)C)C2C(=O)O)sc2c1CCCCC2 (stereo not shown) [CBK265439] | 106
44 | N#Cc1ccc(NC(=O)c2ccc(-n3cnnc3)cc2Cl)cc1 [CBK269758] | 87.2

Row | Structure (SMILES) | viability at 28.5 h, 10 µM [%]
45 | Cc1nonc1CC(=O)N1CCC[C@@H]2[C@H]1C/C=C/Cc1ccccc1OCC(=O)N2C [CBK292062] | 88.3
46 | Cc1ccc(C2=CCN(CC(=O)Nc3nc(C)c(C)s3)CC2)o1 [CBK283607] | 99.1
47 | CCc1ccc(S(=O)(=O)Nc2cccnc2)cc1 [CBK287782] | 87.5
48 | CC(C)COC(=O)N1CCN(C2CCc3cc(-c4ccc([S+](C)[O-])cc4)ccc3C2)CC1 (stereo not shown) [CBK173425] | 89.8
49 | O=C(Nc1ccc(S(=O)(=O)Nc2nccs2)cc1)c1cc(-c2cccnc2)nc2ccc(Cl)cc12 [CBK267721] | 105
50 | COC(=O)[C@H]1CCc2ccccc2N1C(=O)C1CCC1 [CBK285478] | 100
51 | CC(=O)Nc1ccc(-c2ccc(C(=O)N3CCN(C(=O)OCc4ccccc4)CC3)cn2)cc1 [CBK160185] | 87.6
52 | O=C(c1cc(S(=O)(=O)N2CCOCC2)ccc1Cl)N1CCCCC1 [CBK304377] | 94.1
53 | CN(Cc1nc2c(s1)CCCC2)C(=O)COc1ccc2nncn2n1 [CBK306758] | 98.9
54 | Cc1cc(C)n(CC(=O)N[C@H]2CC[C@H]2N)c(=O)n1 [CBK307647] | 91.9
55 | CNc1c(C)cc([N+](C)(C)C)cc1C [CBK261007I] | 95.3
56 | CCC(=O)N1CCC(c2nc(C3CCCC3)no2)C1 (stereo not shown) [CBK285458] | 95.3
57 | C=CCNc1nccnc1-c1cnc(OC)nc1OC [CBK036922] | 91.7
58 | Nc1nc(=O)n([C@H]2C[C@@H](O)[C@@H](CO)O2)cc1I [CBK201226] | 90.4
59 | O=S(=O)(NCc1ccccc1)c1ccc(Cl)cc1 [CBK086159] | 86.7
60 | O=C(COc1ccc(F)cc1)N1CCCC1c1cccc(Cc2ccccc2)n1 (stereo not shown) [CBK286214] | 105
61 | COc1ccc(CN2CCC(N3CCc4ccccc4C3)CC2)cc1OCc1ccccc1 [CBK264629G] | 91.4
62 | Cc1cc2ncc3c(n2n1)CC1CCC3N1C(=O)CCn1cccc1 (stereo not shown) [CBK283157] | 109
63 | CCn1ncc(CN2CCCCCC2c2cc(C)on2)c1C (stereo not shown) [CBK282141] | 91.7
64 | NC(=O)C1CCN(Cc2nc(-c3cccc(C(F)(F)F)c3)no2)CC1 [CBK304276] | 97.4
65 | Cc1cc(C)c2c(C)nn(-c3ccc(C(=O)O)cc3)c2n1 [CBK267480] | 89.6
66 | OCC1COCCN(c2ncnc3c2CCC3)C1 (stereo not shown) [CBK304373] | 103

Row | Structure (SMILES) | viability at 28.5 h, 10 µM [%]
67 | c1ccc2cc(-c3cnc(N4CCOCC4)c4nccn34)ccc2c1 [CBK091307] | 94.1
68 | COc1ccc(S(=O)(=O)NCCSCc2cccc(Cl)c2)c(Cl)c1Cl [CBK266281] | 97.6
69 | CSCCN1CCCN(c2nccc(OCC3COc4ccccc4O3)n2)CC1 (stereo not shown) [CBK083978] | 91.1
70 | CCCCc1ccc(NC(=S)NC(=O)c2ccc(OC)c(OC)c2)cc1 [CBK157691] | 100
71 | O=C(CSCc1ccc(Cl)cc1Cl)Nc1c[nH]c(=O)[nH]c1=O [CBK126912] | 90.4
72 | O=C(NCCn1cccn1)N1CCCN(Cc2ccncc2)CC1 [CBK307129] | 90.1
73 | O=C(NCCN1CCC(O)(c2ccc(F)cc2)CC1)C1CCCCC1 [CBK283165] | 106
74 | COc1cccc(Cn2c(=O)n(C)c3ncccc32)c1 [CBK282391] | 81.1
75 | CCc1nnc(SCC(=O)Nc2cc(OC)ccc2OC)[nH]1 [CBK270167] | 85.1
76 | Cc1cc(C)n(CC(C)CNC(=O)Cc2csc(C(C)(C)C)n2)n1 (stereo not shown) [CBK305340] | 96.1
77 | COc1ccccc1C1(O)CCN(CC(O)c2ccc(C(C)(C)C)cc2)CC1 (stereo not shown) [CBK286335] | 96.2
78 | Cc1cc(S)c2cc(Br)ccc2n1 [CBK288445] | 80.5
79 | CNC(=O)c1sc2ccccc2c1C1CCN(Cc2ccc(OC)c(OC(C)C)c2)C1 (stereo not shown) [CBK285928] | 95.5
80 | O=S(=O)(/N=C(/Nc1nccs1)c1ccccc1)c1cccs1 [CBK268709] | 83.8
81 | O=C(Oc1cccc(NC(=O)c2ccco2)c1)c1cccc(S(=O)(=O)N2CCOCC2)c1 [CBK262272] | 97.2
82 | COc1ccc(NS(=O)(=O)c2ccc(Cl)cc2Cl)c(C(=O)NCc2ccccc2)c1 [CBK113943] | 98.4
83 | CC1CCCC(N2CCN(Cc3ccccn3)CC2)C1 (stereo not shown) [CBK263450] | 93
84 | CCCC/C=C/c1cncc(Nc2ccccc2)n1 [CBK037942] | 103
85 | Cc1cccn2c(CN3CCCC(O)C3)c(C(=O)N3CCOCC3)nc12 (stereo not shown) [CBK306545] | 72.5
86 | CCn1c(-c2ccc3c(c2)OCCO3)cnc1SCC(=O)c1cc(C)[nH]c1C [CBK297880] | 89.4
87 | OC(COc1cccc2ccccc12)CN1CCN(C(c2ccccc2)c2ccccc2)CC1 (stereo not shown) [CBK007591] | 93.1

same assay, conditions: human, hela cells, % viability, bulk resorufin, single well

Row | Structure (SMILES) | viability at 28.5 h, 10 µM [%]
88 | O=C(Nc1ccccc1F)N1CCC2(CC1)OCc1cc(-c3ccco3)ccc1O2 [CBK060597] | 92
